Assay results from patent US10590109B2, “Heterocyclic compounds used as FGFR inhibitors” (Nanjing InnoCare Pharma Tech Co., Ltd., priority 2016, dated 2020).
pIC50: −log10 of the molar value.

Experiments:
[1] = system: Hep3B cells; assay: Hep3B cell proliferation inhibition test (CellTiter-Glo); assay type: cell-based; settings: Homo sapiens, 72 h, CTG
Procedure: Hep3B Cell Proliferation Inhibition Test
The influence of the compound according to the present invention on Hep3B cell proliferation was evaluated by a luminescence cell viability test.
(§1) The experimental method is summarized as follows:
A CellTilter-Glo (CTG) assay kit was used to detect an indicator ATP of active cellular metabolism by means of a unique stable luciferase, and the luminous signal produced in the test was in direct proportion to the count of active cells in the medium, thereby to detect the cell proliferation of Hep3B.
A CellTilter-Glo agent (Promega, G7572) was comprised of a CellTilter-Glo lyophilized powder and a CellTilter-Glo buffer, and the lyophilized powder was dissolved into the buffer in use.
Hep3B cells (ATCC, HB-8064) (cell source: Shanghai Academy of Life Sciences, Chinese Academy of Sciences) were cultured in a DMEM complete medium (Thermofisher, 11995073) containing a 10% FBS (GBICO, 10099-141) and 100 units/ml mycillin mixed solution (Thermofisher, 15140122). When the cells coverage reached 80-90% in the culture vessel, after the cells were digested and blown about with 0.25% pancreatin (containing EDTA) (Thermofisher, 25200056), they were planted in a white 384 well plate (Thermofisher, 164610), with 1000 cells in each well (27 μl of a DMEM complete medium), and then the 384 well plate was placed into an incubator at 37° C. and 5% CO2 and cultured overnight (18-20 h). The compound was dissolved and diluted in 100% DMSO to 100 μM, then 4-fold-series diluted with DMSO to a minimum concentration of 0.0061 μM, and each concentration point was 50-fold diluted with the FBS-free DMEM medium. If the IC50 value of the compound was very low, the initial concentration of the compound could be reduced. […] This 384 well plate was placed into an incubator at 37° C. and 5% CO2 for further culture, taken out after 72 h, and stood at room temperature for 30 min. The CTG agent was also taken out and balanced to room temperature. 15 μl of the CTG agent was added into each well, and placed onto a shaker to be gently shaken for 3 min to ensure sufficient cell lysis. After 10 min of standing to allow the luminescence signal to be stable, the luminescence signal was read with EnVision (Perkin Elmer).
The inhibition percentage of the compound against Hep3B cell proliferation could be calculated with the following formula: Inhibition percentage=100−100*(signalcompound−signalnegative control)/(signalpositive control−signalnegative control)
The IC50 value of the compound was calculated by the following formula, from 8 concentration points, with XLfit (ID Business Solutions Ltd., UK): Y=Bottom+(Top−Bottom)/(1+10^((Log IC50−X)*slope factor))
Where, Y is the inhibition percentage, Bottom is the bottom plateau of the curve (the bottom plateau of the S-type curve), Top is the top plateau of the curve (the top plateau of the S-type curve), and X is the log value of the compound concentration to be measured.

[2] = biological target: human recombinant FGFR3 catalytic structural domain protein (Homo sapiens (Human), UniProt P22607); assay: FGFR3 activity inhibition test (HTRF kinase assay); assay type: biochemical; settings: 90 μM ATP
human recombinant FGFR3 catalytic structural domain protein, sequence (P22607 399-806): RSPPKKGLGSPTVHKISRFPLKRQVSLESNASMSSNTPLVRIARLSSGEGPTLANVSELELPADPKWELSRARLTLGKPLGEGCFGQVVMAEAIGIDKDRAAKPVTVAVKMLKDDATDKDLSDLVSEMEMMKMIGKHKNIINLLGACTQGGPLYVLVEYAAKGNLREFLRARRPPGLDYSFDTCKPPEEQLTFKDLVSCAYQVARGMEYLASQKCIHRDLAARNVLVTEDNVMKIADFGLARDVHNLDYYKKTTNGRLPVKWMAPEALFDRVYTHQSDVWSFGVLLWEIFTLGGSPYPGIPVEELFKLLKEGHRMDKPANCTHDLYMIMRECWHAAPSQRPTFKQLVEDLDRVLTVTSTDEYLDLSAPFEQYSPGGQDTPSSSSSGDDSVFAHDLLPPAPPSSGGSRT
Procedure: FGFR3 Activity Inhibition Test
The influence of the compound according to the present invention on the activity of fibroblast growth factor receptor 3 (FGFR3) was evaluated by an in vitro kinase assay experiment.
as §1
The in vitro activity of FGFR3 was determined by assaying the phosphorylation level of the substrate in the kinase reaction, by means of an HTRF kinase assay kit. The reaction buffer comprised the following components: 5-fold diluted Enzymatic buffer/kinase 5× (Cisbio, Catalog number 62EZBFDD) (main ingredient: 50 mM HEPES, pH 7.0), 5 mM MgCl2, 1 mM DTT; the human recombinant FGFR3 catalytic structural domain protein (amino acids 399-806) was commercially available from Sino Biological Inc., diluted with the reaction buffer to a 0.3 ng/μL kinase solution; the substrate reaction solution comprised a biotin labeled tyrosine kinase substrate diluted with the reaction buffer to 1000 nM (Cisbio, catalog number 62TK0PEC), and 90 μM ATP, and the assay solution comprised an Eu^3+ labeled cage-shaped antibody (Cisbio, Catalog number 61T66KLB) diluted with the assay buffer (Cisbio, Catalog number 62SDBRDF) to 0.125 ng/μL, and 62.5 nM streptavidin labeled XL665 (Cisbio, Catalog number 610SAXLB).
The compound was dissolved and diluted in 100% DMSO to 100 μM, then 4-fold-series diluted with DMSO to a minimum concentration of 0.0061 μM, and each concentration point was then 40-fold diluted with the reaction buffer. If the IC50 value of the compound was very low, the initial concentration of the compound could be reduced.
4 μL of a compound solution and 2 μL of an FGFR3 kinase solution were added into a 384 well assay plate (Thermo, Catalog number 264706), mixed uniformly and then incubated for 15 min at room temperature; subsequently, 4 μL of the substrate reaction solution was added therein, and the reaction mixture was incubated for 60 min at room temperature; and then 10 μL of an assay solution of an equal volume to the reaction was added therein and mixed uniformly, followed by placement at room temperature. After 60 min, the enzyme reaction was terminated by EDTA in the assay solution, and the phosphorylated products were identified by both the Eu^3+ labeled cage-shaped antibody (donor) and the streptavidin labeled XL665 antibody (receptor) at the same time. After the excitation with laser, the donors and receptors that were close to each other experienced energy resonance transfer, and the energy transferred from the donor (620 nm) to the receptor (665 nm) could be detected with Envision. The ratio of 665/620 is in positive correlation to the phosphorylation degree of the substrate, thereby to detect the FGFR3 kinase activity. […] The inhibition percentage of the compound against […] activity could be calculated with the following formula: Inhibition percentage=100−100*(signalcompound−signalnegative control)/(signalpositive control−signalnegative control)
(§2) The IC50 value of the compound was calculated by the following formula, from 10 concentration points, with XLfit (ID Business Solutions Ltd., UK): Y=Bottom+(Top−Bottom)/(1+10^((Log IC50−X)*slope factor)) Where, Y is the inhibition percentage, Bottom is the bottom plateau of the curve (the bottom plateau of the S-type curve), Top is the top plateau of the curve (the top plateau of the S-type curve), and X is the log value of the compound concentration to be measured.

[3] = biological target: human recombinant FGFR4 catalytic structural domain protein (Homo sapiens (Human), UniProt P22455); assay: FGFR4 activity inhibition test (HTRF kinase assay); assay type: biochemical; settings: 90 μM ATP
human recombinant FGFR4 catalytic structural domain protein, sequence (P22455 460-802): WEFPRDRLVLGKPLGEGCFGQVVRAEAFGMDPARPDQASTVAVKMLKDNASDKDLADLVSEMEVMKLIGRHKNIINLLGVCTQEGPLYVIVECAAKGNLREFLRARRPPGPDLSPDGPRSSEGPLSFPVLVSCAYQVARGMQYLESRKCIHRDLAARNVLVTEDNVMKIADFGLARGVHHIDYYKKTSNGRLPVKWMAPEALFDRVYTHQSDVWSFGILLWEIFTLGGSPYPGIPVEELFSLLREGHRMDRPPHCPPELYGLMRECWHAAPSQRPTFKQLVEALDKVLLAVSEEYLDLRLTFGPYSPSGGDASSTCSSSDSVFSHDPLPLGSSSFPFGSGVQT
Procedure: FGFR4 Activity Inhibition Test
The influence of the compound according to the present invention on the activity of fibroblast growth factor receptor 4 (FGFR4) was evaluated by an in vitro kinase assay experiment.
as §1
The in vitro activity of FGFR4 was determined by assaying the phosphorylation level of the substrate in the kinase reaction, by means of an HTRF kinase assay kit.
If the IC50 value of the compound was very low, the initial concentration of the compound could be reduced.
After 60 min, the enzyme reaction was terminated by EDTA in the assay solution, and the phosphorylated products were identified by both the Eu^3+ labeled cage-shaped antibody (donor) and the streptavidin labeled XL665 antibody (receptor) at the same time. […] The inhibition percentage of the compound against FGFR4 activity could be calculated with the following formula: Inhibition percentage=100−100*(signalcompound−signalnegative control)/(signalpositive control−signalnegative control)
as §2

SMILES: COC[C@@H](C)Oc1cc(NC(=O)N(C)c2ccc(CN3CCOCC3=O)c(C=O)n2)ncc1C#N [Compound 14, (R)-3-(5-cyano-4-((1-methoxyprop-2-yl)oxo)pyrid-2-yl)-1-(6-formyl-5-((3-carbonylmorpholino)methyl)pyrid-2-yl)-1-methylurea]
- pIC50 [1]: > 7.30
- pIC50 [2]: < 6.00
- pIC50 [3]: > 8.00
